Test results as given in US9095126B2, “Targeting TGF-β as a therapy for Alzheimer's disease” (Yale University, priority 2008, dated 2015).

B1: BMP-4: recombinant BMP-4, bone morphogenic protein (protein, UniProt P12644 293-408, looked up)
Bone morphogenetic protein 4: SPKHHSQRARKKNKNCRRHSLYVDFSDVGWNDWIVAPPGYQAFYCHGDCPFPLADHLNSTNHAIVQTLVNSVNSSIPKACCVPTELSAISMLYLDEYDKVVLKNYQEMVVEGCGCR

What was measured:
peripheral macrophages = experiment: Aβ phagocytosis assay, Aβ488 pulse-chase, confocal microscopy; assay type: cell-based, mouse; settings: primary macrophages with ALK5 inhibitor 1 h, pulsed 4 h with pre-aggregated Aβ488, chased 15 min (FIG. 9B-9C)
Procedure: FIG. 9, comprising FIGS. 9A-9F, is a series of images depicting Activin-like kinase (ALK) inhibition increases the ratio of phospho-SMAD1/5/8 to phospho-SMAD2/3 and promotes macrophage Aβ phagocytosis. FIG. 9A depicts peripheral MΦ pre-treated with a dose range (0.1, 1.0, or 10.0 μM) of ALK5 inhibitors (SB-505124 or SB-431542) for 1 h and then cultured in the presence or absence of recombinant TGF-β1 (5 ng/mL) for 30 min as indicated. Upper panels show Western blots for phospho (p) or total forms of SMAD2/3 or SMAD1/5/8. Lower panel is a histogram showing the ratio of pSMAD1/5/8 to pSMAD2/3. […] FIG. 9C depicts quantification of confocal images (n=3 randomly selected 10× magnification fields per group, group means±s.d.), and Aβ488-labeled area is shown in the upper graph, and numbers of Aβ488 phagocytic cells/field are shown in the lower graph. FIGS. 9D-9F depict gender-dependent reductions in Aβ levels in Tg2576+ animals and anti-inflammatory responses in brains of crossed mice. Biochemical analyses of (FIG. 9D) detergent-soluble and (FIG. 9E) guanidine HCl-soluble Aβ1-42 and Aβ1-42/Aβ1-40 in male vs. female Tg2576 positive mice (irrespective of CD11c-DNR transgene status). FIG. 9F depicts Q-PCR results for Tnfa (left) or Il10 (right) expression (relative to Hprt1) shown for four groups of mice, and statistical comparisons vs. wild-type mice. […]

[1] = system: TGF-β-activated Smad2/3 signaling; experiment: Western blot for phosphorylated Smad2/3 (canonical TGF-β-activated signaling) in primary macrophages/microglia; assay type: cell-based, mouse; settings: for TGF-β1-induced Smad2/3 phosphorylation: peripheral macrophages pre-treated 1 h with 0.1, 1.0 or 10.0 μM ALK5 inhibitor, then TGF-β1 5 ng/mL for 30 min (FIG. 9A); for phosphorylated Smad2/3 after TGF-β1 challenge: TGF-β1 1, 5 or 10 ng/ml with or without LPS 50 ng/ml, 30 min (FIG. 7A)
Procedure: (§1) Cortical microglia were isolated from neonatal (1-2 day-old) CD11c-DNR or wild-type C57BL/6 mice according to previously published methods (Tan et al., 1999 Science 286: 2352-2355; Town et al., 2006 J. Immunol, 176: 3804-3812), Briefly, brains were isolated under sterile conditions and cerebral cortices were incubated in tripsin-EDTA (Invitrogen-Gibco) for 15 min at 37° C. Complete RPMI 1640 medium (supplemented with 10% FCS and 1 mM penicillin-streptomycin) was then added and brains were dissociated by trituration. Subsequently, cerebral cortex material was plated in 25 cm^2 flasks (Fisher Scientific), and the media was changed every 2-3 days. When the appearance of microglia was noted (typically 14 days after plating), culture media was exchanged with RPMI 1640 medium supplemented with 5% FCS, and the microglia were isolated by shaking in an incubator-shaker at 200 rpm for 2 h at 37° C. Peripheral MΦ were isolated from adult CD11c-DNR or wild-type C57BL/6 mice according to standard immunological methods by intraperitoneally (i.p.) injecting mice with 900 μL of 3% (w/v) sterile thioglycollate solution diluted in PBS. Four days later, mice were injected i.p. with 10 mL of ice-cold PBS for peritoneal lavage. Peripheral MΦ were then plated with complete medium (DMEM supplemented with 10% FCS and 1 mM penicillin streptomycin) and allowed to rest overnight. […] Microglia or peripheral MΦ from wild-type or CD11c-DNR mice were plated at 1×10^6 cells/well in 6-well tissue culture plates (BD Biosciences-Falcon) containing complete RPMI 1640 media or complete DMEM, respectively. These cells were then treated with a dose-range of recombinant TGF-β1 (R&D Systems; 1, 5, or 10 ng/mL) in the presence or absence of lipopolysachharide (LPS, 50 ng/mL) for 30 min. In a separate set of experiments, these cells were pre-treated for 1 h with ALK5 inhibitors SB-505124 or SB-431542 (Sigma-Aldrich; used at 0.1, 1.0, or 10.0 μM) and 5 ng/mL of recombinant TGF-β1 was added. For Aβ phagocytosis assay, MΦ were pulse-chased with Aβ as described elsewhere herein. Cells were rinsed in ice-cold PBS three times, and lysed ice-cold lysis buffer (containing 20 mM Tris-HCl pH 7.5, 150 mM NaCl, 1 mM Na2EDTA, 1 mM EGTA, 1% v/v Triton X-100, 2.5 mM sodium pyrophosphate, 1 mM glycerophosphate, 1 mM Na3VO4, 1 μg/ml leupeptin, and 1 mM PMSF). After lysis for 30 min on ice, cell lysates were centrifuged at 15,000×g for 30 min, and supernatants were aliquoted for Western blot analysis. Protein concentration was determined using the Bradford method, and aliquots corresponding to 50 μg of protein were run out on 12% Nu-PAGE™ polyacrylamide gels (Invitrogen) and proteins were transferred electrophoretically to Immobilon-P polyvinylidene difluoride membranes (Millipore). Membranes were blocked in blocking buffer (5% w/v nonfat dry milk in Tris-buffered saline containing 1% v/v Tween-20) for 3 h at ambient temperature and incubated overnight at 4° C. with primary polyclonal antibodies directed against total or phosphorylated SMAD2/3, SMAD1/5/8, PAK2, or ERK1/2 (Cell Signaling Technology). Membranes were then rinsed three times for 5 min each in dH2O, and incubated with anti-rabbit secondary antibody conjugated with horseradish peroxidase (diluted at 1/2000 in blocking buffer; GE Healthcare-Amersham Biosciences). After an additional three rinses for 5 min each in dH2O, the membranes were incubated for 5 min at ambient temperature with the enhanced chemiluminescence substrate (Thermo Fisher Scientific-Pierce Biotechnology), exposed to film, and developed.

[2] = system: bone morphogenic protein-activated Smad1/5/8 signaling; experiment: Western blot for phosphorylated Smad1/5/8 (alternate bone morphogenic protein-activated signaling) in peripheral macrophages; assay type: cell-based, mouse; settings: for ratio of phospho-Smad1/5/8 to phospho-Smad2/3: ALK5 inhibitor treatment alone, 0.1, 1.0 or 10.0 μM, peripheral macrophages (FIG. 9A)
Procedure: as §1

[3] = system: p21-activated kinase 2 (PAK2); experiment: Western blot for phosphorylated PAK2 in peripheral macrophages; assay type: cell-based, mouse; settings: wild-type peripheral macrophages; for PAK2 phosphorylation: 30 min, TGF-β1 5 ng/mL alone, BMP-2 50-200 ng/mL or BMP-4 12.5-50 ng/mL (FIG. 12B)
Procedure: Cortical microglia were isolated from neonatal (1-2 day-old) CD11c-DNR or wild-type C57BL/6 mice according to previously published methods (Tan et al., 1999 Science 286: 2352-2355; Town et al., 2006 J. Immunol, 176: 3804-3812), Briefly, brains were isolated under sterile conditions and cerebral cortices were incubated in tripsin-EDTA (Invitrogen-Gibco) for 15 min at 37° C. Complete RPMI 1640 medium (supplemented with 10% FCS and 1 mM penicillin-streptomycin) was then added and brains were dissociated by trituration. Subsequently, cerebral cortex material was plated in 25 cm^2 flasks (Fisher Scientific), and the media was changed every 2-3 days. When the appearance of microglia was noted (typically 14 days after plating), culture media was exchanged with RPMI 1640 medium supplemented with 5% FCS, and the microglia were isolated by shaking in an incubator-shaker at 200 rpm for 2 h at 37° C. Peripheral MΦ were isolated from adult CD11c-DNR or wild-type C57BL/6 mice according to standard immunological methods by intraperitoneally (i.p.) injecting mice with 900 μL of 3% (w/v) sterile thioglycollate solution diluted in PBS. Four days later, mice were injected i.p. with 10 mL of ice-cold PBS for peritoneal lavage. Peripheral MΦ were then plated with complete medium (DMEM supplemented with 10% FCS and 1 mM penicillin streptomycin) and allowed to rest overnight.
Microglia or peripheral MΦ from wild-type or CD11c-DNR mice were plated at 1×10^6 cells/well in 6-well tissue culture plates (BD Biosciences-Falcon) containing complete RPMI 1640 media or complete DMEM, respectively. These cells were then treated with a dose-range of recombinant TGF-β1 (R&D Systems; 1, 5, or 10 ng/mL) in the presence or absence of lipopolysachharide (LPS, 50 ng/mL) for 30 min. […] Protein concentration was determined using the Bradford method, and aliquots corresponding to 50 μg of protein were run out on 12% Nu-PAGE™ polyacrylamide gels (Invitrogen) and proteins were transferred electrophoretically to Immobilon-P polyvinylidene difluoride membranes (Millipore). […]

microglia = settings: exogenous addition of TGF-β1 to microglia (Wyss-Coray et al., 2001); cited from earlier work
[4] = peripherally isolated macrophages, exogenous TGF-β1 5 ng/mL, 30 min (FIG. 9A)
[5] = wild-type peripheral macrophages, 30 min, TGF-β1 5 ng/mL alone, BMP-2 50-200 ng/mL or BMP-4 12.5-50 ng/mL (FIG. 12B)

Molecule	macrophage Aβ phagocytosis (Aβ488-labeled area, Aβ488 phagocytic cells/field) (peripheral macrophages)	TGF-β1-induced Smad2/3 phosphorylation [1]	ratio of phospho-Smad1/5/8 to phospho-Smad2/3 [2]	Smad2/3 phosphorylation [1, 5]	PAK2 phosphorylation [3]	Smad1/5/8 phosphorylation [2, 5]	further results
NC(=O)c1ccc(-c2nc(-c3ccc4c(c3)OCO4)c(-c3ccccn3)[nH]2)cc1 [SB-431542, reference compound]	increased Aβ phagocytosis in a dose-dependent fashion	blocked by ALK5 inhibition in a dose-dependent manner	increased				
TGF-β1: recombinant TGF-β1 (R&D Systems), cytokine				promoted Smad2/3 phosphorylation	little impact	little impact	phosphorylated Smad2/3 after TGF-β1 challenge ([1]; CD11c-DNR macrophages): nonresponsive; phosphorylated Smad2/3 after TGF-β1 challenge ([1]; CD11c-DNR microglia): responded to challenge; Smad2/3 phosphorylation ([1]; TGF-β1 5 ng/mL added to the BMP treatment conditions, wild-type peripheral macrophages): further promoted; Smad2/3 phosphorylation [1, 4]: increased phosphorylation; phosphorylated Smad2/3 after TGF-β1 challenge ([1]; wild-type microglia and macrophages): showed phosphorylated Smad2/3; BMP-induced PAK2 phosphorylation ([3]; TGF-β1 5 ng/mL added to the BMP treatment conditions): inhibited; Aβ uptake by microglia (microglia): promotes increased Aβ uptake; Smad1/5/8 phosphorylation ([2]; CD11c-DNR macrophages, exogenous TGF-β1 and LPS together (FIG. 7B)): further augmented; Smad1/5/8 phosphorylation [2, 4]: increased phosphorylation
Cc1cccc(-c2[nH]c(C(C)(C)C)nc2-c2ccc3c(c2)OCO3)n1 [SB-505124, reference compound]	increased Aβ phagocytosis in a dose-dependent fashion	blocked by ALK5 inhibition in a dose-dependent manner	increased				
B1				did not impact	promoted	promoted	ratio of pSmad1/5/8 to pSmad2/3 ([2]; BMP monotreatment compared with TGF-β1 treatment alone, wild-type peripheral macrophages): increased
